Data set [1] in a line: cells. The note with it: Homo sapiens, Th17.
Description: Inhibition of IL-17 production in human Th17 cells
Data set [2] addresses T1, Nuclear receptor ROR-gamma (Homo sapiens, UniProt P51449).
T1 sequence (P51449 whole entry): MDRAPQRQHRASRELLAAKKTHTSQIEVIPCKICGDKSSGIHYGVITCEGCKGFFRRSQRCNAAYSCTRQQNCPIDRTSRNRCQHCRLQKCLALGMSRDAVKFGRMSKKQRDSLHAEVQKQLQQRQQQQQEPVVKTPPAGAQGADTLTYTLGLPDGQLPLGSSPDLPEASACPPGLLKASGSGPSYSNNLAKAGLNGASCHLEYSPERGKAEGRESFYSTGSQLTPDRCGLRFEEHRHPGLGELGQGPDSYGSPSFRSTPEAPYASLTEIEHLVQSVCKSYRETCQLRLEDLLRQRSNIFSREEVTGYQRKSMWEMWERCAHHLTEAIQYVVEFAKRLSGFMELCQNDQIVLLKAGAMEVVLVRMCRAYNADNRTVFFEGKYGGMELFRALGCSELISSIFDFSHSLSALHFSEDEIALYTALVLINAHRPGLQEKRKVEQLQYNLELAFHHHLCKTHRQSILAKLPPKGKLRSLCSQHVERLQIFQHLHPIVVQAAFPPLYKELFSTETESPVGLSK
Kind of data set: Inhibition of transactivation of Gal4-tagged RORgamma (unknown origin) transfected in human HG5LN cells incubated for 18 hrs by luciferase reporter gene assay. It counts as cell-based. For orientation: A reporter such as luciferase makes a cellular process visible.

Data set [3] deals with T1, Nuclear receptor ROR-gamma. Description: Inhibition of human RORgammat expressed in COS7 cells by luciferase assay. It counts as cell-based.
Data set [4] in a line: cells. As to conditions: Homo sapiens, PBMC.
Description: Inhibition of IL-17 production in human PBMC
The target of data set [5] is T1, Nuclear receptor ROR-gamma. Kind of data set: Inverse agonist activity at human GAL4-RORgamma […] expressed in HEK293 cells measured after 24 hrs by ligand binding assay. It counts as cell-based.
The nature of data set [6]: Inhibition of IL-17F production in human PBMC by ELISA. It counts as functional, cell-based. Background: An ELISA detects its analyte on a solid surface through an enzyme-linked reagent.
Data set [7] is described as follows: Inhibition of IL-17A production in human PBMC by ELISA. It counts as functional, cell-based.
The nature of data set [8]: Inhibition of IL-22 production in human PBMC by ELISA. It counts as functional, cell-based.
A short description of data set [9]: Inhibition of IL-21 production in human PBMC by ELISA. It counts as functional, cell-based.
Data set [10] concerns the target T1, Nuclear receptor ROR-gamma. Kind of data set: Inhibition of human GAL4-fused RORgamma LBD transfected in HEK293T cell measured after 24 hrs by luciferase reporter assay. It counts as cell-based.
Data set [11] deals with T1, Nuclear receptor ROR-gamma. Kind of data set: Inverse agonist activity at His-tagged human RORgammat LBD assessed as inhibition of biotinylated RIP140 co-activator peptide binding incubated for 1 hr by TR-FRET assay. Background: In TR-FRET formats the signal depends on donor and acceptor labels being close together.
The nature of data set [12]: Oral bioavailability in rat. It counts as ADME, organism-based. As to conditions: in vivo.
Data set [13] in a line: Unbound fraction in rat blood. It counts as ADME, tissue-based.
The nature of data set [14]: Unbound fraction in human blood. It counts as ADME, tissue-based.
The species named for data set [15] is Homo sapiens. Kind of data set: Inhibition of IL-17 production in human whole blood measured after 72 hrs by ELISA. It counts as functional.
Data set [16] in a line: Inhibition of human Th17 cell differentiation. It counts as functional, cell-based.
The nature of data set [17]: Suppression of Th17 polarization in human CD4+ T cells cultured under Th17-skewing conditions measured after 4 days.
The species entered for data set [18] is Homo sapiens. Description: tissue or blood.
Description: Inhibition of IL-17A secretion in healthy human whole blood
Data set [19] is filed under the species Mus musculus. Description: animal or person. As to conditions: po, read-out: INH.
Description: Anti-inflammatory activity against mouse EAE model assessed as reduction in EAE score at 100 mg/kg, po relative to control
Data set [20] is described as follows: Half life in rat. It counts as ADME. As to conditions: in vivo.
Data set [21] is described as follows: Half life in dog. As to conditions: in vivo. It counts as ADME, Canis lupus familiaris.
The nature of data set [22]: Unbound fraction in human plasma. It counts as ADME, cell-free.
A short description of data set [23]: cells. The note with it: Homo sapiens, PBMC. The source holds these as a separate data set.
Description: Inhibition of IL-17A secretion in human PBMC cells
A short description of data set [24]: Solubility of the compound. It counts as physicochemical.
Data set [25] is described as follows: Oral bioavailability in dog. It counts as ADME, organism-based, Canis lupus familiaris. The note with it: in vivo.
The species named for data set [26] is Homo sapiens. Description: tissue or blood. The source holds these as a separate data set.
Description: Inhibition of IL-17A secretion in psoriatic human whole blood
For data set [27], the system named is Mus musculus. Description: Anti-arthritis activity against glucose-6-phosphate isomerase-induced arthritis DBA/1 mouse model assessed as reduction in paw swelling clinical score at 1000 mg/kg, po. It counts as functional.
Data set [28] in a line: Plasma clearance in rat. It counts as ADME.
The target of the next data set is hERG (KCNH2) (Homo sapiens, UniProt Q12809). Kind of data set: Inhibition of human ERG at 3 uM relative to control. It counts as toxicity.
hERG (KCNH2), sequence (Q12809 whole entry): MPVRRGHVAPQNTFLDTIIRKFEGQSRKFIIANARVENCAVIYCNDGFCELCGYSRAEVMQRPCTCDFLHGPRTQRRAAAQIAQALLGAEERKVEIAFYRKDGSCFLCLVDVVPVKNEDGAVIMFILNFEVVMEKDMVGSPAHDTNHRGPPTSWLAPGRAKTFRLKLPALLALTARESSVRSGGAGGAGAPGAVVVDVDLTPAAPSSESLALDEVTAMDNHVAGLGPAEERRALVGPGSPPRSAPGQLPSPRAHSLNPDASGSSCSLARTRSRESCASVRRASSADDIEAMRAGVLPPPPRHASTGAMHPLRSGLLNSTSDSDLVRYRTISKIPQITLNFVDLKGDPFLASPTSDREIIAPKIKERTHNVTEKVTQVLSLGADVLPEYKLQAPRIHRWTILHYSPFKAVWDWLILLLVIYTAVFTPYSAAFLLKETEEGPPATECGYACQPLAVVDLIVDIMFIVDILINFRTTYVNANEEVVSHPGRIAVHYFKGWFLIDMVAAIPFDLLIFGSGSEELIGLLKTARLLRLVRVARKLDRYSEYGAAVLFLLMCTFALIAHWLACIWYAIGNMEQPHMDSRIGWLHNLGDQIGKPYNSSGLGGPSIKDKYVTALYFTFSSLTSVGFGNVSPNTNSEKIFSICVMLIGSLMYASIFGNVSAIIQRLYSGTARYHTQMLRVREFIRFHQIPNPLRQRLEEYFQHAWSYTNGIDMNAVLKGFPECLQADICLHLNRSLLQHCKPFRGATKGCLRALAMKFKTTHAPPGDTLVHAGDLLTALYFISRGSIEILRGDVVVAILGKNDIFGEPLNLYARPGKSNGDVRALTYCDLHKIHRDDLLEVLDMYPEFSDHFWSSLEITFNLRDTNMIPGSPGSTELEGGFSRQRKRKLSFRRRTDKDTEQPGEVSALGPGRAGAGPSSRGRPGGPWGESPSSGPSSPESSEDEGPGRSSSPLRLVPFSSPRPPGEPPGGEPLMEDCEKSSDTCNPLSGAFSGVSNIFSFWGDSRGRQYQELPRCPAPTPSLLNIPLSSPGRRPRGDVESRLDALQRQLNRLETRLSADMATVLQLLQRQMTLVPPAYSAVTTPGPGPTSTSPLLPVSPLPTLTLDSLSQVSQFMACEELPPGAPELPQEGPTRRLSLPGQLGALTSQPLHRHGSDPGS

In brackets after ≈: the same amount, converted by molar mass.

For the molecule `C[C@H]1CCCCN1C(=O)c1nc(C(=O)NCC(C)(C)O)sc1-c1cnc(NCC(C)(C)C)cc1C(F)(F)F`, in the data set “cells [1]”, it took 2.8 nM to reach half-maximal inhibition (IC50).

For the molecule `Cc1ccc(N(CC(C)C)S(=O)(=O)c2ccc3c(c2)[nH]c(=O)n3CC2CCOCC2)c(C)c1`, the concentration for half-maximal inhibition (IC50) (as a rule, the concentration that inhibits the measured activity by half) in data set [2] came out at 19 nM.

As for `CCS(=O)(=O)c1ccc(CC(=O)Nc2cc(Cl)c(C3(c4noc(-c5ccc(F)cc5)n4)CC3)c(Cl)c2)cc1`, the IC50 in data set [3] was 2.1 nM; in the data set “cells [4]” it was 6.6 nM.

As to `O=C(O)CC1CN(Cc2ccc(-c3ccc(C(O)(C(F)(F)F)C(F)(F)F)cc3)cc2)CCN1Cc1ccncc1` (stereo not drawn), the half-maximal inhibitory concentration (IC50) in data set [5] is > 10000 nM.

With `O=S(=O)(c1ccccc1)N1CCC(Cn2ncc3cc(-c4cn[nH]c4)ccc32)CC1`, the concentration for half-maximal inhibition (IC50) in data set [6], in [7], in data set [8] and in data set [9] was < 10000 nM throughout.

In data set [10], `CCS(=O)(=O)c1ccc(CNc2nc3c(C)nc(-c4c(C)ncnc4C4CC4)nc3n([C@@H](C)C3CC3)c2=O)nc1` yielded an IC50 of 60 nM.

Regarding `CCOC(=O)CC1CN(Cc2ccc(-c3ccc(C(O)(C(F)(F)F)C(F)(F)F)cc3)cc2)CCN1Cc1ccncc1` (stereo not drawn), in [5], the IC50 is < 1000 nM.

On to `Cc1ncc(C(=O)Nc2cn3ccnc3c(CN3CCN(C(=O)C4CCCC4)[C@@H](C)C3)c2C)cn1`, for which the IC50 in data set [11] turned out to be 13 nM; in the data set filed under Homo sapiens [15], 168 nM. The bioavailability (usually dose-corrected exposure relative to a reference, in per cent) in data set [12] came out at 23%. For the same molecule, the unbound share (fraction unbound) (commonly free concentration divided by total concentration) was determined as 0.256 in data set [13] and 0.312 in [14].

Regarding `Cc1ncc(C(=O)Nc2cc(F)cc(CN3CCN(C(=O)C4CCCC4)[C@@H](C)C3)c2C)cn1`, the half-maximal inhibitory concentration (IC50) in data set [16] came to 31 nM; in data set [3], 97 nM.

With `COC(=O)[C@]12CCC(C)(C)CC1C1C(=O)C=C3[C@@]4(C)C=C(C#N)C(=O)[C@@](C)(O)[C@@H]4CC[C@@]3(C)[C@]1(C)CC2` (stereo partly drawn), the IC50 in data set [10] amounted to 115 nM; in data set [17], 18 nM.

As for `CCS(=O)(=O)c1ccc(CNC(=O)c2cnc3c(c2)CN(C[C@H]2CC[C@H](C(F)(F)F)CC2)[C@H]3C(C)C)nc1`, the figures for the IC50 in the data set filed under Homo sapiens [18], in the data set “cells [23]” and in the data set filed under Homo sapiens [26] were 207 nM, 21 nM and 250 nM, respectively. Also, in the data set listed under Mus musculus [19], the inhibition in vivo at 100 mg/kg is > 95%. Also, the values for the half-life in [20] and in [21] were 6 h and 15 h, respectively. The bioavailability in data set [12] came to 64%; in [25], 66%. Also, in [22], the free fraction (fraction unbound) is 0.005. Moreover, in data set [24], the solubility – broadly, how much of the substance goes into solution per volume – was found to be 17 µM (≈ 9.4 µg/mL).

With `CC(=O)N1Cc2cc(S(C)(=O)=O)ccc2[C@@H]1C(=O)Nc1ccc(C(O)(C(F)(F)F)C(F)(F)F)cc1`, the bioavailability in data set [12] came to 34%; in data set [25], 96%. Also, the free fraction (fraction unbound) in [22] was found to be 0.16. Besides, the solubility in [24] stood at 380 µM (≈ 199 µg/mL).

As for `CCS(=O)(=O)c1ccc(CNC(=O)c2cc3c(s2)C2(CCN([C@H](C)c4cnc(C(F)(F)F)nc4)CC2)O[C@@H](C)C3)nc1`, in the data set with Mus musculus [27], the inhibition in vivo at 1000 mg/kg amounted to 75%. This molecule came in with a 50% inhibitory concentration (IC50) in the data set “cells [23]” of 20 nM.

For `O=C(O)c1ccc(-c2nn(C(=O)c3c(Cl)cccc3C3(C(F)(F)F)CC3)c3cccnc23)c(F)c1`, the clearance (as a rule, the volume of plasma or blood freed of the substance per unit of time) in data set [28] turned out to be 5 mL/min/kg.

Turning to `CC[C@H]1c2ncc(C(=O)N[C@@H](CO)c3ccc(S(=O)(=O)CC)cn3)cc2CN1C[C@H]1CC[C@H](C(F)(F)F)CC1`, on hERG (KCNH2), the inhibition (in general, the percentage by which the read-out fell short of the control) at 3 µM came out at 7.7%.

The values are drawn from ChEMBL document CHEMBL5260836, “Combating Autoimmune Diseases With Retinoic Acid Receptor-Related Orphan Receptor-γ (RORγ or RORc) Inhibitors: Hits and Misses” (J Med Chem, 2018).
